According to US20240122212A1 (SUNTORY HOLDINGS LIMITED, priority 2020, published 2024):

Legend:
[1] = Basic taste quality sensory evaluation by trained panelists, spitting test, against 6% sucrose control (Example 1); type: in vivo, human; details: scale −3 to 3, 0 = no difference from 6% sucrose control; D-allulose 8.57 w/v %, D-arabinose 10 w/v % in pure water; 4 panelists
Procedure: In each evaluation item, the rating on a scale of −3 point to 3 point was performed, with the case where there is no difference from the control solution being 0. Quicker in sweetness onset, higher sweetness intensity, shorter lingering sweet aftertaste, lower bitterness intensity, and shorter lingering bitter aftertaste compared to the control were rated near 3 points. Slower in sweetness onset, lower sweetness intensity, longer lingering sweet aftertaste, higher bitterness intensity, and longer lingering bitter aftertaste compared to the control were rated near −3 points. That is, the closer to 0 point, the closer to the control. The evaluation was carried out by those (4 persons) who received sensory trainings as panelists by spitting test. The amount of a sweet substance contained in each sample solution was adjusted to be equal to the control solution on the calculation. […] The energy (kcal/100 ml) was calculated from the amount of the sweetener added.

[2] = Degree of sweetness relative to sucrose; details: for degree of sweetness, median value: median of the range, sucrose = 1; for degree of sweetness at sweetness intensity of 0.3, times as much as that of sucrose: sweetness intensity 0.3; for degree of sweetness at sweetness intensity of 4.3, times as much as that of sucrose: sweetness intensity 4.3
Excerpt: The “sweetness intensity” means an intensity of sweetness of a substance. […] A numerical value obtained by multiplying the degree of sweetness by a concentration Brix value of glucose is the sweetness intensity of glucose in terms of sucrose. Thus, when a concentration of glucose in terms of sucrose is Brix 1.5, the sweetness intensity of glucose is 0.65×1.5=0.975. The sweetness intensity of a sweetener in terms of sucrose can be calculated from a degree of sweetness shown in the following table or a value of a known degree of sweetness.
For example, when the sweetness intensity of sucrose per unit concentration Brix 1 is defined as a degree of sweetness of 1, a degree of sweetness of rebaudioside D is about 200 to 250 (median value 225), a degree of sweetness of rebaudioside M is about 200 to 260 (median value 230), a degree of sweetness of rebaudioside B is about 325, a degree of sweetness of rebaudioside A is about 200 to 300 (median value 250), a degree of sweetness of rebaudioside N is about 200 to 250 (median value 225), a degree of sweetness of rebaudioside O is about 200 to 250 (median value 225), a degree of sweetness of rebaudioside E is about 70 to 80 (median value 75), a degree of sweetness of a Luo han guo extract (containing 40% of Mog V) is about 110 to 150 (median value 130), a degree of sweetness of mogroside V is about 240 to 300 (median value 270), and a degree of sweetness of thaumatin is about 2,000, and a degree of sweetness of brazzein is about 500 to 2,000 (median value 1,250). The numerical value obtained by multiplying these degrees of sweetness by a concentration (w/v % (considered to be the same as w/w % in the case of a beverage)) of the high-intensity sweetener in a fruit juice beverage is a sweetness intensity of the high-intensity sweetener. The relative ratio in degrees of sweetness of various sweeteners to the degree of sweetness of 1 of sucrose can be determined from a known sugar sweetness conversion table, and the like. In the present description, when a degree of sweetness is shown in a numerical value range, the median value may be used. However, a sweetener having different values in a degree of sweetness by literatures, a relative ratio in a degree of sweetness to the degree of sweetness of 1 of sucrose can be defined by a sensory test. Examples of such a sensory test include a method in which samples were prepared by adding sucrose having a sweetness intensity of Brix 3.0 to 5.0 in 0.5 increments to pure water, and of which a sucrose-added sample having a sweetness intensity equal to an aqueous solution of a sweetener in a predetermined concentration is selected.
Additionally, for a sweetener with a variable degree of sweetness as a sweetness intensity increases, degrees of sweetness in different concentrations are actually measured and plotted whereby a degree of sweetness in a predetermined concentration may be calculated from the obtained approximate curve.

[3] = value used to design the sample solutions

Row | Molecule | degree of sweetness, median value [2] | degree of sweetness at sweetness intensity of 0.3, times as much as that of sucrose [2, 3] [times] | degree of sweetness at sweetness intensity of 4.3, times as much as that of sucrose [2, 3] [times] | also measured
1 | O=C(CO)[C@H](O)[C@H](O)[C@H](O)CO [D-Allulose] | – | – | – | Bitterness intensity [1]: −1 point; Lingering bitter aftertaste [1]: −0.625 point; Lingering sweet aftertaste [1]: 0.125 point; Quickness in sweetness onset [1]: 0.125 point; Sweetness intensity [1]: −0.125 point; degree of sweetness, times as much as that of sucrose [2, 3]: 0.7 times
2 | O=C[C@H](O)[C@@H](O)[C@H](O)[C@H](O)CO [Glucose] | 0.65 | – | – | –
3 | C[C@H](CC[C@@H](O[C@@H]1O[C@H](CO[C@@H]2O[C@H](CO)[C@@H](O)[C@H](O)[C@H]2O)[C@@H](O)[C@H](O)[C@H]1O[C@@H]1O[C@H](CO)[C@@H](O)[C@H](O)[C@H]1O)C(C)(C)O)[C@H]1CC[C@@]2(C)[C@@H]3CC=C4[C@@H](CC[C@H](O[C@@H]5O[C@H](CO[C@@H]6O[C@H](CO)[C@@H](O)[C@H](O)[C@H]6O)[C@@H](O)[C@H](O)[C@H]5O)C4(C)C)[C@]3(C)[C@H](O)C[C@]12C [mogroside V] | 270 | – | – | –
4 | C=C1C[C@@]23CC[C@H]4[C@@](C)(CCC[C@@]4(C)C(=O)O[C@@H]4O[C@H](CO)[C@@H](O)[C@H](O)[C@H]4O)[C@@H]2CC[C@]1(O[C@@H]1O[C@H](CO)[C@@H](O)[C@H](O[C@@H]2O[C@H](CO)[C@@H](O)[C@H](O)[C@H]2O)[C@H]1O[C@@H]1O[C@H](CO)[C@@H](O)[C@H](O)[C@H]1O)C3 [rebaudioside A] | 250 | 100 | 190.5 | –
5 | C=C1C[C@@]23CC[C@H]4[C@@](C)(CCC[C@@]4(C)C(=O)O[C@@H]4O[C@H](CO)[C@@H](O)[C@H](O)[C@H]4O[C@@H]4O[C@H](CO)[C@@H](O)[C@H](O)[C@H]4O)[C@@H]2CC[C@]1(O[C@@H]1O[C@H](CO)[C@@H](O)[C@H](O[C@@H]2O[C@H](CO)[C@@H](O)[C@H](O)[C@H]2O)[C@H]1O[C@@H]1O[C@H](CO)[C@@H](O)[C@H](O)[C@H]1O)C3 [rebaudioside D] | 225 | 100 | 190.5 | –
6 | C=C1C[C@@]23CC[C@H]4[C@@](C)(CCC[C@@]4(C)C(=O)O[C@@H]4O[C@H](CO)[C@@H](O)[C@H](O)[C@H]4O[C@@H]4O[C@H](CO)[C@@H](O)[C@H](O)[C@H]4O)[C@@H]2CC[C@]1(O[C@@H]1O[C@H](CO)[C@@H](O)[C@H](O)[C@H]1O[C@@H]1O[C@H](CO)[C@@H](O)[C@H](O)[C@H]1O)C3 [rebaudioside E] | 75 | – | – | –
7 | C=C1C[C@@]23CC[C@H]4[C@@](C)(CCC[C@@]4(C)C(=O)O[C@@H]4O[C@H](CO)[C@@H](O)[C@H](O[C@@H]5O[C@H](CO)[C@@H](O)[C@H](O)[C@H]5O)[C@H]4O[C@@H]4O[C@H](CO)[C@@H](O)[C@H](O)[C@H]4O)[C@@H]2CC[C@]1(O[C@@H]1O[C@H](CO)[C@@H](O)[C@H](O[C@@H]2O[C@H](CO)[C@@H](O)[C@H](O)[C@H]2O)[C@H]1O[C@@H]1O[C@H](CO)[C@@H](O)[C@H](O)[C@H]1O)C3 [rebaudioside M] | 230 | 100 | 190.5 | –
8 | C=C1C[C@@]23CC[C@H]4[C@@](C)(CCC[C@@]4(C)C(=O)O[C@@H]4O[C@H](CO)[C@@H](O)[C@H](O[C@@H]5O[C@H](CO)[C@@H](O)[C@H](O)[C@H]5O)[C@H]4O[C@@H]4O[C@@H](C)[C@H](O)[C@@H](O)[C@H]4O)[C@@H]2CC[C@]1(O[C@@H]1O[C@H](CO)[C@@H](O)[C@H](O[C@@H]2O[C@H](CO)[C@@H](O)[C@H](O)[C@H]2O)[C@H]1O[C@@H]1O[C@H](CO)[C@@H](O)[C@H](O)[C@H]1O)C3 [rebaudioside N] | 225 | – | – | –
9 | C=C1C[C@@]23CC[C@H]4[C@@](C)(CCC[C@@]4(C)C(=O)O[C@@H]4O[C@H](CO)[C@@H](O)[C@H](O[C@@H]5O[C@H](CO)[C@@H](O)[C@H](O)[C@H]5O)[C@H]4O[C@@H]4O[C@@H](C)[C@H](O)[C@@H](O[C@@H]5O[C@H](CO)[C@@H](O)[C@H](O)[C@H]5O)[C@H]4O)[C@@H]2CC[C@]1(O[C@@H]1O[C@H](CO)[C@@H](O)[C@H](O[C@@H]2O[C@H](CO)[C@@H](O)[C@H](O)[C@H]2O)[C@H]1O[C@@H]1O[C@H](CO)[C@@H](O)[C@H](O)[C@H]1O)C3 [rebaudioside O] | 225 | – | – | –
10 | brazzein: sweet protein of Pentadiplandra brazzeana (QDKCKKVYENYPVSKCQLANQCNYDCKLDKHARSGECFYDEKRNLQCICDYCEY; UniProt P56552 1-54, looked up) | 1,250 | – | – | –
